In PubChem BioAssay AID2060483 (Molecular Pharmacology Branch, DTP, NCI, 2025):

System: K24384-001-R-PDC complex spheroids, viability
Assay: Anticancer human tumor K24384-001-R-PDC patient-derived pancreatic adenocarcinoma cell line growth inhibition [GQUAD]
Details: for IC50: curve of first compound; for viability, T/C: stronger effect = lower value
Summary of the method: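 Multi-cell-type spheroids of tumor cells with HUVEC and mesenchymal stem cells, treated with drug combinations. Concentrations descend in half-log steps from near clinical Cmax, or from 10 microM where Cmax is unknown; viability read-out.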

[1] = second compound 0.0316 µM, first compound 0.0316 µM
[2] = second compound 0.0316 µM, first compound 0.1 µM
[3] = second compound 0.0316 µM, first compound 0.316 µM
[4] = second compound 0.0316 µM, first compound 1 µM
[5] = second compound 0.0316 µM, first compound 3.16 µM
[6] = second compound 0.0316 µM, first compound 10 µM
[7] = second compound 0.1 µM, first compound 0.0316 µM
[8] = second compound 0.1 µM, first compound 0.1 µM
[9] = second compound 0.1 µM, first compound 0.316 µM
[10] = second compound 0.1 µM, first compound 1 µM
[11] = second compound 0.1 µM, first compound 3.16 µM
[12] = second compound 0.1 µM, first compound 10 µM
[13] = second compound 0.316 µM, first compound 0.0316 µM
[14] = second compound 0.316 µM, first compound 0.1 µM
[15] = second compound 0.316 µM, first compound 0.316 µM
[16] = second compound 0.316 µM, first compound 1 µM
[17] = second compound 0.316 µM, first compound 3.16 µM
[18] = second compound 0.316 µM, first compound 10 µM
[19] = second compound 1 µM, first compound 0.0316 µM
[20] = second compound 1 µM, first compound 0.1 µM
[21] = second compound 1 µM, first compound 0.316 µM
[22] = second compound 1 µM, first compound 1 µM
[23] = second compound 1 µM, first compound 3.16 µM
[24] = second compound 1 µM, first compound 10 µM
[25] = second compound 3.16 µM, first compound 0.0316 µM
[26] = second compound 3.16 µM, first compound 0.1 µM
[27] = second compound 3.16 µM, first compound 0.316 µM
[28] = second compound 3.16 µM, first compound 1 µM
[29] = second compound 3.16 µM, first compound 3.16 µM
[30] = second compound 3.16 µM, first compound 10 µM
[31] = second compound 10 µM, first compound 0.0316 µM
[32] = second compound 10 µM, first compound 0.1 µM
[33] = second compound 10 µM, first compound 0.316 µM
[34] = second compound 10 µM, first compound 1 µM
[35] = second compound 10 µM, first compound 3.16 µM
[36] = second compound 10 µM, first compound 10 µM
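Note: spheroids exposed to compounds for seven days.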

With `CC(C)(O)C1CCC(Nc2ccc3ncc(-c4cccc(C(F)(F)F)c4)n3n2)CC1` (stereo unspecified) + CN(C)c1ccc(Nc2c3ccc(NC(=O)CCN4CCCC4)cc3nc3cc(NC(=O)CCN4CCCC4)ccc23)cc1 as the compound, how does the IC50 (second compound 0.0316 µM) read?
Its IC50 is 2.35 µM.

And the IC50 (second compound 0.1 µM)?
Its IC50 is 2.03 µM.

And the IC50 (second compound 0.316 µM)?
Its IC50 is 2.38 µM.

And the IC50 (second compound 1 µM)?
The IC50 was 2.16 µM.

And the IC50 (second compound 3.16 µM)?
Its IC50 is 1.89 µM.

What about the IC50 (second compound 10 µM) of the same compound?
The IC50 was 1.24 µM.

What about the viability, T/C [1] of the same compound?
Its viability, T/C is 106%.

And the viability, T/C [2]?
Its viability, T/C is 106%.

What about the viability, T/C [3] of the same compound?
Its viability, T/C is 102%.

What about the viability, T/C [4] of the same compound?
The viability, T/C was 84.6%.

And the viability, T/C [5]?
Its viability, T/C is 37.5%.

And the viability, T/C [6]?
The viability, T/C was 37.2%.

And the viability, T/C [7]?
The viability, T/C was 105%.

What about the viability, T/C [8] of the same compound?
Its viability, T/C is 104%.

What about the viability, T/C [9] of the same compound?
The viability, T/C was 96.4%.

And the viability, T/C [10]?
The viability, T/C was 79%.

What about the viability, T/C [11] of the same compound?
The viability, T/C was 30.5%.

And the viability, T/C [12]?
The viability, T/C was 33.4%.

What about the viability, T/C [13] of the same compound?
Its viability, T/C is 104%.

What about the viability, T/C [14] of the same compound?
Its viability, T/C is 98.1%.

And the viability, T/C [15]?
The viability, T/C was 98%.

What about the viability, T/C [16] of the same compound?
The viability, T/C was 94.6%.

And the viability, T/C [17]?
The viability, T/C was 35.4%.

What about the viability, T/C [18] of the same compound?
The viability, T/C was 34.3%.

What about the viability, T/C [19] of the same compound?
The viability, T/C was 106%.

What about the viability, T/C [20] of the same compound?
The viability, T/C was 109%.

What about the viability, T/C [21] of the same compound?
Its viability, T/C is 109%.

What about the viability, T/C [22] of the same compound?
Its viability, T/C is 82%.

What about the viability, T/C [23] of the same compound?
The viability, T/C was 28.6%.

What about the viability, T/C [24] of the same compound?
Its viability, T/C is 39.6%.

And the viability, T/C [25]?
Its viability, T/C is 100%.

What about the viability, T/C [26] of the same compound?
Its viability, T/C is 101%.

What about the viability, T/C [27] of the same compound?
Its viability, T/C is 107%.

What about the viability, T/C [28] of the same compound?
The viability, T/C was 77.4%.

What about the viability, T/C [29] of the same compound?
The viability, T/C was 26.2%.

And the viability, T/C [30]?
Its viability, T/C is 29.8%.

What about the viability, T/C [31] of the same compound?
Its viability, T/C is 94.4%.

What about the viability, T/C [32] of the same compound?
Its viability, T/C is 98%.

And the viability, T/C [33]?
The viability, T/C was 77.9%.

What about the viability, T/C [34] of the same compound?
The viability, T/C was 61.5%.

What about the viability, T/C [35] of the same compound?
The viability, T/C was 16.9%.

And the viability, T/C [36]?
Its viability, T/C is 16.9%.

`Cc1[nH]c2ccccc2c1CCNCc1ccc(/C=C/C(=O)NO)cc1` + Cc1cnc(CNC(=O)c2c(=O)c3ccc(N4CCCN(C)CC4)nc3n3c2sc2ccccc23)cn1 was tested. Which IC50 (second compound 0.0316 µM) did it give?
Its IC50 is 0.118 µM.

What about the IC50 (second compound 0.1 µM) of the same compound?
The IC50 was 0.0794 µM.

And the IC50 (second compound 0.316 µM)?
Its IC50 is 0.0395 µM.

What about the IC50 (second compound 1 µM) of the same compound?
Its IC50 is under 0.000999 µM.

What about the IC50 (second compound 3.16 µM) of the same compound?
Its IC50 is under 0.000999 µM.

And the IC50 (second compound 10 µM)?
Its IC50 is under 0.000999 µM.

What about the viability, T/C (second compound 0.0316 µM, first compound 0.000999 µM) of the same compound?
Its viability, T/C is 83.9%.

And the viability, T/C (second compound 0.0316 µM, first compound 0.00316 µM)?
The viability, T/C was 75.8%.

What about the viability, T/C (second compound 0.0316 µM, first compound 0.00999 µM) of the same compound?
The viability, T/C was 109%.

And the viability, T/C [1]?
The viability, T/C was 82.9%.

And the viability, T/C (second compound 0.0316 µM, first compound 0.0999 µM)?
Its viability, T/C is 57.4%.

What about the viability, T/C [3] of the same compound?
Its viability, T/C is 6.49%.

And the viability, T/C (second compound 0.1 µM, first compound 0.000999 µM)?
Its viability, T/C is 65.4%.

What about the viability, T/C (second compound 0.1 µM, first compound 0.00316 µM) of the same compound?
The viability, T/C was 81.2%.

And the viability, T/C (second compound 0.1 µM, first compound 0.00999 µM)?
The viability, T/C was 74.7%.

And the viability, T/C [7]?
Its viability, T/C is 57%.

What about the viability, T/C (second compound 0.1 µM, first compound 0.0999 µM) of the same compound?
Its viability, T/C is 48.9%.

And the viability, T/C [9]?
Its viability, T/C is 5.15%.

What about the viability, T/C (second compound 0.316 µM, first compound 0.000999 µM) of the same compound?
The viability, T/C was 45.5%.

What about the viability, T/C (second compound 0.316 µM, first compound 0.00316 µM) of the same compound?
The viability, T/C was 54.4%.

And the viability, T/C (second compound 0.316 µM, first compound 0.00999 µM)?
The viability, T/C was 63.1%.

And the viability, T/C [13]?
Its viability, T/C is 44.8%.

And the viability, T/C (second compound 0.316 µM, first compound 0.0999 µM)?
Its viability, T/C is 45.6%.

And the viability, T/C [15]?
Its viability, T/C is 1.86%.

And the viability, T/C (second compound 1 µM, first compound 0.000999 µM)?
The viability, T/C was 41.3%.

What about the viability, T/C (second compound 1 µM, first compound 0.00316 µM) of the same compound?
Its viability, T/C is 41.8%.

And the viability, T/C (second compound 1 µM, first compound 0.00999 µM)?
The viability, T/C was 37.3%.

What about the viability, T/C [19] of the same compound?
The viability, T/C was 37.3%.

What about the viability, T/C (second compound 1 µM, first compound 0.0999 µM) of the same compound?
The viability, T/C was 28.2%.

And the viability, T/C [21]?
The viability, T/C was 0.15%.

What about the viability, T/C (second compound 3.16 µM, first compound 0.000999 µM) of the same compound?
The viability, T/C was 33.8%.

What about the viability, T/C (second compound 3.16 µM, first compound 0.00316 µM) of the same compound?
Its viability, T/C is 33.3%.

What about the viability, T/C (second compound 3.16 µM, first compound 0.00999 µM) of the same compound?
The viability, T/C was 35.4%.

And the viability, T/C [25]?
Its viability, T/C is 34.6%.

And the viability, T/C (second compound 3.16 µM, first compound 0.0999 µM)?
Its viability, T/C is 13.5%.

What about the viability, T/C [27] of the same compound?
The viability, T/C was 0.12%.

What about the viability, T/C (second compound 10 µM, first compound 0.000999 µM) of the same compound?
Its viability, T/C is 0.27%.

And the viability, T/C (second compound 10 µM, first compound 0.00316 µM)?
Its viability, T/C is 0.26%.

What about the viability, T/C (second compound 10 µM, first compound 0.00999 µM) of the same compound?
Its viability, T/C is 0.28%.

What about the viability, T/C [31] of the same compound?
Its viability, T/C is 0.32%.

And the viability, T/C (second compound 10 µM, first compound 0.0999 µM)?
The viability, T/C was 0.26%.

What about the viability, T/C [33] of the same compound?
Its viability, T/C is 0.21%.

Which results are given for `CC(C)n1c(=O)n(C)c2cnc3cc(F)c(-c4ccc(OCCCN5CCCCC5)nc4)cc3c21` + Cc1cnc(CNC(=O)c2c(=O)c3ccc(N4CCCN(C)CC4)nc3n3c2sc2ccccc23)cn1?
IC50 (second compound 0.0316 µM): > 10 µM; IC50 (second compound 0.1 µM): > 10 µM; IC50 (second compound 0.316 µM): > 10 µM; IC50 (second compound 1 µM): 1.88 µM; IC50 (second compound 3.16 µM): < 0.0316 µM; IC50 (second compound 10 µM): < 0.0316 µM; viability, T/C [1]: 68.1%; viability, T/C [2]: 77%; viability, T/C [3]: 76.9%; viability, T/C [4]: 92.9%; viability, T/C [5]: 99.9%; viability, T/C [6]: 87.7%; viability, T/C [7]: 70.1%; viability, T/C [8]: 84.2%; viability, T/C [9]: 67.1%; viability, T/C [10]: 80.6%; viability, T/C [11]: 83.5%; viability, T/C [12]: 69.3%; viability, T/C [13]: 60.3%; viability, T/C [14]: 81.4%; viability, T/C [15]: 55%; viability, T/C [16]: 62%; viability, T/C [17]: 71.2%; viability, T/C [18]: 52%; viability, T/C [19]: 48.1%; viability, T/C [20]: 52%; viability, T/C [21]: 57.7%; viability, T/C [22]: 51.4%; viability, T/C [23]: 54.6%; viability, T/C [24]: 41.5%; viability, T/C [25]: 44.4%; viability, T/C [26]: 46%; viability, T/C [27]: 46.2%; viability, T/C [28]: 58.4%; viability, T/C [29]: 42%; viability, T/C [30]: 49.7%; viability, T/C [31]: 39%; viability, T/C [32]: 19.4%; viability, T/C [33]: 39.9%; viability, T/C [34]: 46.8%; viability, T/C [35]: 32.8%; viability, T/C [36]: 0.33%
